{"source": "patent US6693063B2", "about": "“Herbicidal composition” (Aventis CropScience GmbH, priority 2000, dated 2004)", "tested_on": "monocotyledonous and dicotyledonous weeds", "test": "Greenhouse post-emergence herbicidal test, effect rated visually against untreated controls", "type": "in vivo", "protocol": "Seeds or rhizome pieces of monocotyledonous and dicotyledonous weeds were placed in sandy loam soil in plastic pots, covered with soil and grown in a greenhouse under good growth conditions. Three weeks after seeding, the test plants were treated in the three-leaf stage. The compositions of the invention, formulated as wettable powders or as emulsion concentrates, were sprayed onto the green parts of the plants at various application rates of 600-800 l of water/ha (converted). The test plants were allowed to stand in the greenhouse under optimum growth conditions for about 3 to 4 weeks, and the effect of the preparations was then rated visually in comparison to untreated controls. The compositions according to the invention have good herbicidal activity against harmful plants of economic importance.", "data": [{"smiles": "CCCCCCCC(=O)Oc1c(Br)cc(C#N)cc1Br", "note": "[Bromoxynil-octanoate, bromoxynil-octanoate]", "values": [{"measurement": "herbicidal activity compared with a commercial formulation of bromoxynil-octanoate", "setting": "300 and 600 g of AS/ha as microcapsule suspension (10%, Formulation Example 2), applied with a surfactant such as Genapol X 150, Genapol X 200, Sapogenat T130, T 200, T 300, T 400, T 500 or Genapol O 200 at 150, 300 and 600 g of surfactant/ha", "value": "considerably higher"}]}, {"smiles": "N#Cc1cc(Br)c([O-])c(Br)c1.[Na+]", "note": "[bromoxynil-Na, bromoxynil-sodium]", "values": [{"measurement": "herbicidal activity compared with bromoxynil-Na applied with a surfactant having a lower content of ethylene oxide units (Genapol® 060, 6 ethylene oxide units)", "setting": "bromoxynil-Na 300 g/ha in combination with a surfactant such as Genapol X 150, Genapol X 200, Sapogenat T130, T 200, T 300, T 400, T 500 or Genapol O 200 at 50, 100, 300 and 60 g/ha, post-emergence, three-leaf stage, rated after about 3 to 4 weeks", "value": "considerably higher"}]}]}
